Assays:
[1] = tested on: riboswitch TPPm (E. coli thiM TPP aptamer); test: Luciferase reporter with TPPm riboswitch in HEK 293 cells; type: cell-based, human; details: FIG. 1
From the text: (§1) Riboswitch constructs: Aptamers were synthesized by Integrated DNA Technologies, Inc. and Golden Gate cloning strategy (New England Biolabs, NEB) was used to clone the synthesized aptamer sequences into intron-exon-intron cassette to replace the guanine aptamer in the G17 riboswitch cassette (see SEQ ID NO: 15 recited in WO 2016/126747, which is incorporated herein in its entirety) with a TPP aptamer from the Alishewanella tabrizica thiC gene (Microbiol Res. 2017 January; 195:71-80) or a TPP aptamer from the Escherichia coli thiM gene (Structure. 2006 September; 14(9):1459-68), generating riboswitch TPPz and TPPm, respectively.
(§2) Transfection: 3.5×10^4 human embryonic kidney (HEK) 293 cells were plated in a 96-well flat bottom plate the day before transfection. Plasmid DNA (500 ng) was added to a tube or a 96-well U-bottom plate. Separately, TransIT-293 reagent (Mirus; 1.4 μL) was added to 50 μL Optimem I media (Life Technologies) and allowed to sit for 5 minutes at room temperature (RT). Then, 50 μL of this diluted transfection reagent was added to the DNA, mixed, and incubated at RT for 20 min. Finally, 7 μL of this solution was added to a well of cells in the 96-well plate. Four hours after transfection, medium containing transfection solution was replaced by medium containing either TPP, fursultiamine, prosultiamine, bisbentiamine, beclotiamine hydrochloride, or sulbutiamine as aptamer inducers.
(§3) Firefly luciferase assay of cultured cells: Twenty-four hours after media change, plates were removed from the incubator, and equilibrated to RT for several minutes on a lab bench, then aspirated. Glo-lysis buffer (Promega, 100 μL, RT) was added, and the plates allowed to remain at RT for at least 5 minutes. Then, the well contents were mixed by 50 μL trituration, and 20 μL of each sample was mixed with 20 μL of bright-glo reagent (Promega) that had been diluted to 10% in glo-lysis buffer. 96 wells were spaced on an opaque white 384-well plate. Following a 5 min incubation at RT, luminescence was measured using a Tecan machine with 500 ms read time. The luciferase activity was expressed as mean arbitrary light units (ALU)±S.D., and fold induction was calculated as the quotient of the luciferase activity obtained from cells with TPP or analog treatment divided by the luciferase activity obtained from cells without TPP or analog treatment.

[2] = tested on: riboswitch TPPz (A. tabrizica thiC TPP aptamer); test: Luciferase reporter with TPPz riboswitch in HEK 293 cells; type: cell-based, human; details: FIG. 1
From the text: as §1, §2, §3

riboswitch 15D10 [3] = test: Luci-15D10 luciferase reporter in ARPE-19 cells; type: cell-based, human; details: FIG. 9E
riboswitch 15D10 [4] = test: Luciferase reporter with 15D10 riboswitch (Luci-15D10) in HEK 293 cells; type: cell-based, human; details: HEK 293 cells; FIG. 9A, 9C
Procedure, shortened: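 Cells transfected with riboswitch-luciferase plasmid; 4 h later medium replaced with TPP or thiamine analogs (fursultiamine, prosultiamine, bisbentiamine, beclotiamine, sulbutiamine) as inducers.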

riboswitch 15D10 [5] = test: Luciferase reporter with 15D10 riboswitch (Luci-15D10) in AML12 cells; type: cell-based, mouse; details: AML 12 cells; compared with fursultiamine or within groups
[6] = tested on: luciferase expression in HEK 293 cells; test: Screen of aptamer libraries A1-A3 for gene regulation activity with fursultiamine; type: cell-based, human; details: 50 μM fursultiamine, FIG. 4A
Experimental: Three aptamer libraries A1, A2 and A3, were generated by randomizing nucleotides at 6 positions in, or adjacent to, regions J4-5, J2-4 and J3-2, respectively (see FIG. 3). Single bacterial colonies were picked and plasmids containing riboswitch constructs were screened in HEK 293 cells for improved gene regulation activity in response to 50 μM fursultiamine as compared to riboswitch 14G4. […] These riboswitches comprising re-engineered aptamer sequences also lead to significant enhancements of target gene expression in other cells types, including alpha mouse liver 12 (AML12), C2C12 (murine myoblast cell line), and adult retinal pigment epithelial cell line-19 (ARPE-19) (see FIG. 4B).

| Molecule | effect on luciferase expression, riboswitch TPPm [1] | effect on luciferase expression, riboswitch TPPz [2] | fursultiamine-dependent induction compared to parent construct 14G4 [6] | further results |
| --- | --- | --- | --- | --- |
| CC(=C(CCOC(=O)C(C)C)SSC(CCOC(=O)C(C)C)=C(C)N(C=O)Cc1cnc(C)nc1N)N(C=O)Cc1cnc(C)nc1N (stereo in doubt) [sulbutiamine] | weak or no effects on luciferase expression | weak or no effects on luciferase expression |  |  |
| C/C(=C(\CCO)SCOC(=O)C(C)(C)C)N(C=O)Cc1cnc(C)nc1N [Compound M10, (Z)-((2-(N-((4-Amino-2-methylpyrimidin-5-yl)methyl)formamido)-5-hydroxypent-2-en-3-yl)thio)methyl pivalate] |  |  |  | activity in increasing riboswitch 15D10-regulated luciferase expression (riboswitch 15D10 [3]): equivalent potency to fursultaimine; effect on luciferase expression from Luci-15D10 (riboswitch 15D10 [4]): increased; relative potency in inducing luciferase expression (riboswitch 15D10 [5]): more potent than fursultiamine |
| Cc1ncc(C[n+]2csc(CCCl)c2C)c(N)n1.Cl.[Cl-] [beclotiamine hydrochloride] | weak or no effects on luciferase expression | weak or no effects on luciferase expression |  |  |
| C/C(=C(\CCOC(=O)c1ccccc1)SS/C(CCOC(=O)c1ccccc1)=C(/C)N(C=O)Cc1cnc(C)nc1N)N(C=O)Cc1cnc(C)nc1N [bisbentiamine] | weak or no effects on luciferase expression | weak or no effects on luciferase expression |  |  |
| 1D10: re-engineered aptamer, encoding sequence SEQ ID NO:8 (nucleic acid, expressed or natural sequence) DNA: ACAGGGGTCCGGCCTTTTCATTTGGCGCCGGTGAGATTATACCCTTTGAACCTGTTTACGGATAATGCCGCCGCAGGGAGT |  |  | increase in fursultiamine-dependent induction |  |
| 3H4: re-engineered aptamer, encoding sequence SEQ ID NO:9 (nucleic acid, expressed or natural sequence) DNA: ACAGGGGTCCGGCCTTTTCATTTGGCGCCGGTGAGAGCACACCCTTTGAACCTGTTCACGGATAATGCCGCTGCAGGGAGT |  |  | increase in fursultiamine-dependent induction |  |
| 4H2: re-engineered aptamer, encoding sequence SEQ ID NO:15 (nucleic acid, expressed or natural sequence) DNA: ACAGGGGTCCGGCCTTTTCATTTGGCGCCGGTGAGAGCACACCCTTCGGACCTGTTTACGGATAATGCCGCCGCAGGGAGT |  |  | increase in fursultiamine-dependent induction |  |
| 6B4: re-engineered aptamer, encoding sequence SEQ ID NO:14 (nucleic acid, expressed or natural sequence) DNA: ACAGGGGTCCGGCCTTTTCATTTGGCGCCGGTGAGAGCACACCCTTGTGACCTGTTTACGGATAATGCCGCCGCAGGGAGT |  |  | increase in fursultiamine-dependent induction |  |
| 6C4: re-engineered aptamer, encoding sequence SEQ ID NO:16 (nucleic acid, expressed or natural sequence) DNA: ACGGGGGTCCGGCCTTTTCATTTGGCGCCGGTGAGAGCACACCCTTCGAACCTGTTTACGGATAATGCCGCCGCAGGGAGT |  |  | increase in fursultiamine-dependent induction |  |
| 6G12: re-engineered aptamer, encoding sequence SEQ ID NO:17 (nucleic acid, expressed or natural sequence) DNA: ACAGGGGTCCGGCCTTTTCATTTGGCGCCGGTGAGAGCACACCCTTTGGACCTGTTTACGGATAATGCCGCCGCAGGGAGT |  |  | increase in fursultiamine-dependent induction |  |

From patent US12570988B2, “Aptamers that bind thiamine analogs and derivatives” (MeiraGTx Gene Regulation Limited, priority 2020, dated 2026)
